Assay results published in patent US4478845A, “Antiinflammatory and/or analgesic imidazoimidazoles” (E. I. Du Pont de Nemours and Company, priority 1983, dated 1984).
Read-outs that look alike come from different tables or passages of the source.

Columns and labels:
[1] = tested on: phenylquinone-induced writhing in mice; test: Phenylquinone Writhing Test; type: in vivo, female white mice; settings: Mus musculus, read-out: Phenylquinone Writhing (PQW) ED50
Procedure: A test compound suspended in 1% methylcellulose was given orally to fasted (17-21 hours) female white mice, 5-20 animals per double blind test. Aqueous (0.01% phenyl-p-benzoquinone) phenylquinone, 0.20 ml per mouse, was injected intraperitoneally 6 minutes before observations were begun.

[2] = tested on: adjuvant-induced arthritis in rats (paw volume); test: Established Adjuvant-Induced Arthritis in Rats; type: in vivo, Charles River Lewis male rats; settings: for percent reduction in paw volume at the indicated dose: at 45 (mg/kg); for ED50: Rattus norvegicus, read-out: Adjuvant Arthritic ED50
[3] = oral, fasted female mice, effective analgesic dose for 50% of the mice
[4] = oral, rats, 7 daily doses, ED50% decrease from control paw volume (uninjected, left hind paw)

Compound | ED50 [1, 3] [mg/kg] | percent reduction in paw volume at the indicated dose ([2]; oral, rats, 7 daily doses) [%] | ED50 ([1]; po) [mg/kg] | ED50 ([2]; po) [mg/kg] | ED50 [2, 4] [mg/kg]
COc1ccc(-c2nc3n(c2-c2ccc(OC)cc2)C(C)=NC3(C(F)(F)F)C(F)(F)F)cc1 [Example 2, 2,3-bis(4-Methoxyphenyl)-5-methyl-7,7-bis(trifluoromethyl)imidazo[1,5-a]imidazole] | 21 | 31 | – | – | –
COc1ccc2c(c1)c(CC(=O)O)c(C)n2C(=O)c1ccc(Cl)cc1 [Indomethacin] | – | – | 0.35 | 0.3 | –
CC(C)Cc1ccc(C(C)C(=O)O)cc1 (stereo not shown) [Ibuprofen] | 10 | – | – | – | 100
CC(=O)Oc1ccccc1C(=O)O [Aspirin] | – | – | – | 305 | –
CC1=NC(C(F)(F)F)(C(F)(F)F)c2nc(-c3ccc(C)cc3)c(-c3ccc(C)cc3)n21 [Example 3, 2,3-bis(4-Methylphenyl)-5-methyl-7,7-bis(trifluoromethyl)imidazo[1,5-a]imidazole] | > 108 | 44 | – | – | –
CC1=NC(C(F)(F)F)(C(F)(F)F)c2nc(-c3ccc(F)cc3)c(-c3ccc(F)cc3)n21 [Example 1, 2,3-bis(4-Fluorophenyl)-5-methyl-7,7-bis(trifluoromethyl)imidazo[1,5-a]imidazole] | – | – | 135 | – | 6.5
CCCCC1C(=O)N(c2ccccc2)N(c2ccccc2)C1=O [Phenylbutazone] | 80 | – | – | – | 10
